According to PubChem BioAssay AID230 (DTP/NCI, 2004):
“And” between values parts separate entries of the source, which are not always exact repeats. Identical values can stand only once. Toxic doses and inconclusive results are not listed.

Tested on: C3H/He mice, Gardner lymphosarcoma 6C3HED ip, survival T/C
Experiment: NCI In Vivo Anticancer Drug Screen. Data for tumor model Lymphosarcoma Gardner 6C3HED (intraperitoneal) in C3H/He mice
Details: endpoint: survival time, mean or median, higher = longer survival
Experimental: The antitumor activity of compounds was measured in mice bearing transplantable tumors. Survival or tumor size were measured and the results are expressed as the measurement made in the treated group (T) divided by the measurement made in the vehicle treated control group (C). The tumor model used in this assay is Lymphosarcoma Gardner 6C3HED (intraperitoneal) in C3H/He mice

[1] = dose: 10.0 mg/kg/injection, schedule: Q01DX010 (ip), vehicle: saline
[2] = dose: 20.0 mg/kg/injection, schedule: Q01DX010 (ip), vehicle: saline
[3] = dose: 1.25 mg/kg/injection, schedule: Q01DX010 (ip), vehicle: saline
[4] = dose: 2.5 mg/kg/injection, schedule: Q01DX010 (ip), vehicle: saline
[5] = dose: 5.0 mg/kg/injection, schedule: Q01DX010 (ip), vehicle: saline
[6] = dose: 4.0 mg/kg/injection, schedule: Q01DX010 (ip), vehicle: saline
[7] = dose: 8.0 mg/kg/injection, schedule: Q01DX010 (ip), vehicle: saline
[8] = dose: 16.0 mg/kg/injection, schedule: Q01DX010 (ip), vehicle: saline
[9] = dose: 25.0 mg/kg/injection, schedule: Q01DX010 (ip), vehicle: saline
[10] = dose: 50.0 mg/kg/injection, schedule: Q01DX010 (ip), vehicle: saline
[11] = dose: 100.0 mg/kg/injection, schedule: Q01DX010 (ip), vehicle: saline
[12] = dose: 200.0 mg/kg/injection, schedule: Q01DX010 (ip), vehicle: saline
[13] = dose: 32.0 mg/kg/injection, schedule: Q01DX010 (ip), vehicle: saline
[14] = dose: 12.5 mg/kg/injection, schedule: Q01DX010 (ip), vehicle: saline

Compound: Cn1c(N)nc2nc[nH]c2c1=S
- T/C [1]: 96 % of control and 103 % of control
- T/C [2]: 96 % of control and 107 % of control
- T/C (dose: 40.0 mg/kg/injection, schedule: Q01DX010 (ip), vehicle: saline): 100 % of control and 107 % of control
- T/C (dose: 80.0 mg/kg/injection, schedule: Q01DX010 (ip), vehicle: saline): 96 % of control

Compound: O=C(O)c1[nH]c(=O)[nH]c(=O)c1F
- T/C [3]: 111 % of control
- T/C [4]: 95 % of control and 107 % of control
- T/C [5]: 92 % of control and 103 % of control
- T/C [1]: 96 % of control

Compound: CCCCn1cnc2c(=S)nc[nH]c21
- T/C [6]: 100 % of control
- T/C [7]: 93 % of control
- T/C [8]: 90 % of control and 92 % of control

Compound: Nc1nc(=O)n(C2CC(O)C(CO)O2)cc1Br (stereo not drawn)
- T/C [9]: 107 % of control
- T/C [10]: 107 % of control
- T/C [11]: 96 % of control and 107 % of control
- T/C [12]: 100 % of control and 107 % of control

Compound: CN1CC[C@]23c4c5ccc(O)c4O[C@H]2C(=O)CC[C@H]3[C@H]1C5
- T/C [6]: 103 % of control
- T/C [7]: 100 % of control
- T/C [8]: 103 % of control
- T/C [13]: 90 % of control and 100 % of control

Compound: C[C@H]1C(=O)O[C@@H]2CCN3CC=C(COC(=O)[C@](C)(O)[C@@]1(C)O)[C@H]23
- T/C (dose: 3.13 mg/kg/injection, schedule: Q01DX010 (ip), vehicle: saline): 100 % of control and 107 % of control
- T/C (dose: 6.25 mg/kg/injection, schedule: Q01DX010 (ip), vehicle: saline): 93 % of control and 103 % of control
- T/C [14]: 100 % of control and 103 % of control
- T/C [9]: 111 % of control

Compound: COc1ccc(/C=N/NC(N)=S)cc1
- T/C [13]: 96 % of control
- T/C (dose: 64.0 mg/kg/injection, schedule: Q01DX010 (ip), vehicle: saline): 92 % of control
- T/C (dose: 128.0 mg/kg/injection, schedule: Q01DX010 (ip), vehicle: saline): 100 % of control
- T/C (dose: 256.0 mg/kg/injection, schedule: Q01DX010 (ip), vehicle: saline): 96 % of control

Compound: C[C@]12C=CC(=O)C=C1CC[C@@H]1[C@@H]2[C@@H](O)C[C@@]2(C)[C@H]1CC[C@]2(O)C(=O)CO
- T/C (dose: 12.5 mg/kg/injection, schedule: Q01DX010 (sc), vehicle: steriod suspending solution): 95 % of control and 100 % of control
- T/C (dose: 25.0 mg/kg/injection, schedule: Q01DX010 (sc), vehicle: steriod suspending solution): 90 % of control and 110 % of control
- T/C (dose: 50.0 mg/kg/injection, schedule: Q01DX010 (sc), vehicle: steriod suspending solution): 95 % of control and 105 % of control
- T/C (dose: 100.0 mg/kg/injection, schedule: Q01DX010 (sc), vehicle: steriod suspending solution): 95 % of control and 110 % of control

Compound: Nc1c(Br)cc2c(c1Br)Cc1cc([N+](=O)[O-])ccc1-2
- T/C (dose: 7.8 mg/kg/injection, schedule: Q01DX010 (ip), vehicle: saline): 92 % of control

Compound: CC1CN1P(=S)(N1CC1C)N1CC1C (stereo not drawn)
- T/C [3]: 103 % of control
- T/C [4]: 100 % of control and 103 % of control
- T/C [5]: 92 % of control and 107 % of control
- T/C [1]: 100 % of control and 103 % of control
- T/C [2]: 107 % of control

Compound: OCCOCCN1CCN(CCCN2c3ccccc3Sc3ccc(C(F)(F)F)cc32)CC1
- T/C [5]: 90 % of control
- T/C [2]: 90 % of control

Compound: COS(C)(=O)=O
- T/C [14]: 119 % of control
- T/C [9]: 300 % of control
- T/C [10]: 300 % of control

Compound: CS(=O)(=O)OCC(O)C(O)C(O)C(O)COS(C)(=O)=O (stereo not drawn)
- T/C [9]: 94 % of control
- T/C [10]: 100 % of control
- T/C [11]: 94 % of control and 100 % of control
- T/C [12]: 100 % of control and 105 % of control
- T/C (dose: 400.0 mg/kg/injection, schedule: Q01DX010 (ip), vehicle: saline): 110 % of control

Compound: N=C(N)c1ccc(Nc2ccc(C(=N)N)cc2)cc1
- T/C (dose: 0.75 mg/kg/injection, schedule: Q01DX010 (ip), vehicle: saline): 103 % of control
- T/C (dose: 1.5 mg/kg/injection, schedule: Q01DX010 (ip), vehicle: saline): 119 % of control
- T/C (dose: 3.0 mg/kg/injection, schedule: Q01DX010 (ip), vehicle: saline): 107 % of control
- T/C (dose: 6.0 mg/kg/injection, schedule: Q01DX010 (ip), vehicle: saline): 100 % of control and 103 % of control
- T/C (dose: 12.0 mg/kg/injection, schedule: Q01DX010 (ip), vehicle: saline): 89 % of control
- T/C (dose: 24.0 mg/kg/injection, schedule: Q01DX010 (ip), vehicle: saline): 96 % of control
